Measured values: patent US9695155B2, “Herbicidal substituted pyrimidinyloxy benzene compounds” (E. I. DU PONT DE NEMOURS AND COMPANY, priority 2013, dated 2017)

Experiments:
morningglory = test: Test C postemergence; format: in vivo, Ipomoea coccinea
In short: (§1)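 Rated visually on 0–100 (100 = complete control) after 13–15 days under glass. Treatments went onto freshly seeded loam/sand soil or onto emerged plants at the 1- to 4-leaf stage, using a surfactant-containing solvent formulation.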

Heteranthera limosa = test: Test B flooded paddy test; format: in vivo; conditions: Flood, 250 g ai/ha, 0 to 100 scale where 0 is no effect and 100 is complete control
In short: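 Post-emergence paddy-water application at the 2-leaf stage, with 3 cm flood kept for the whole test. Response was judged visually relative to controls after 13 to 15 greenhouse days, 0 indicating no effect and 100 complete control.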

pigweed = test: Test C postemergence; format: in vivo, Amaranthus retroflexus
In short: as §1

corn [1] = test: Test C postemergence; format: in vivo, Zea mays
In short: as §1

corn [2] = test: Test A postemergence; format: in vivo, Zea mays
In short: (§2)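 Greenhouse pot test, loam/sand soil. Formulation: non-phytotoxic solvent mix plus surfactant. Pre: directed spray onto soil after sowing. Post: plants at 1–2 leaf, 2–10 cm. Rated visually vs untreated controls at ~10 d, 0 (no effect) to 100 (complete control).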

barnyardgrass = test: Test A postemergence; format: in vivo, Echinochloa crus-galli
In short: as §2

oilseed rape = test: Test C postemergence; format: in vivo, Brassica napus
In short: as §1

velvetleaf = test: Test C postemergence; format: in vivo, Abutilon theophrasti
In short: as §1

waterhemp = test: Test C postemergence; format: in vivo, Amaranthus rudis
In short: as §1

giant foxtail [3] = test: Test A postemergence; format: in vivo, Setaria faberii
In short: as §2

giant foxtail [4] = test: Test C postemergence; format: in vivo, Setaria faberii
In short: as §1

johnsongrass = test: Test C postemergence; format: in vivo, Sorghum halepense
In short: as §1

[5] = 16 g ai/ha, postemergence, 0 is no effect, 100 is complete control
[6] = 125 g ai/ha, postemergence, visual rating, scale 0 to 100 (0 no effect, 100 complete control)
[7] = Postemergence, 62 g ai/ha, scale 0 to 100 (0 no effect, 100 complete control)
[8] = 31 g ai/ha, 0 to 100 scale, 0 no effect, 100 complete control
[9] = 125 g ai/ha, 0 to 100 scale where 0 is no effect and 100 is complete control
[10] = 31 g ai/ha, postemergence, visual rating, scale 0 to 100 (0 no effect, 100 complete control), 13 to 15 days

## N#Cc1cnn(-c2c(Br)cccc2Oc2ncc(Cl)cn2)c1 [Compound 140]
morningglory; [5]
  Plant response rating (0 to 100), Morningglory: 0
morningglory; [6]
  Plant response rating, Morningglory: 70
morningglory; [7]
  Plant response rating, Morningglory: 75
Heteranthera limosa
  Plant response rating, Ducksalad: 80
pigweed; [5]
  Plant response rating (0 to 100), Pigweed: 85
pigweed; [6]
  Plant response rating, Pigweed: 90
pigweed; [7]
  Plant response rating, Pigweed: 90
Corn [1]; [5]
  Plant response rating (0 to 100), Corn: 0
Corn [1]; [6]
  Plant response rating, Corn: 10
Corn [1]; [7]
  Plant response rating, Corn: 10
Corn [2]; [8]
  Plant response rating, Corn: 20
Corn [2]; [9]
  Corn plant response rating: 30
barnyardgrass; [8]
  Plant response rating, Barnyardgrass: 30
barnyardgrass; [9]
  Barnyardgrass plant response rating: 70
Oilseed rape; [5]
  Plant response rating (0 to 100), Oilseed Rape: 5
Oilseed rape; [6]
  Plant response rating, Oilseed Rape: 50
Oilseed rape; [7]
  Plant response rating, Oilseed Rape: 50
velvetleaf; [5]
  Plant response rating (0 to 100), Velvetleaf: 5
velvetleaf; [6]
  Plant response rating, Velvetleaf: 60
velvetleaf; [7]
  Plant response rating, Velvetleaf: 45
waterhemp; [5]
  Plant response rating (0 to 100), Waterhemp: 75
waterhemp; [6]
  Plant response rating, Waterhemp: 85
waterhemp; [7]
  Plant response rating, Waterhemp: 80
Giant foxtail [3]; [8]
  Plant response rating, Foxtail, Giant: 30
Giant foxtail [3]; [9]
  Foxtail, Giant plant response rating: 90
Giant foxtail [4]; [5]
  Plant response rating (0 to 100), Foxtail, Giant: 5
Giant foxtail [4]; [6]
  Plant response rating, Foxtail, Giant: 20
Giant foxtail [4]; [7]
  Plant response rating, Foxtail, Giant: 20
johnsongrass; [5]
  Plant response rating (0 to 100), Johnsongrass: 0
johnsongrass; [6]
  Plant response rating, Johnsongrass: 25
johnsongrass; [7]
  Plant response rating, Johnsongrass: 5

## Clc1cnc(Oc2ccccc2-n2cc(C3CC3)nn2)nc1 [Compound 160, 5-chloro-2-[2-(4-cyclopropyl-1H-1,2,3-triazol-1-yl)phenoxy]pyrimidine]
morningglory; [10]
  Morningglory plant response rating: 75
morningglory; Ipomoea, post-emergence, 16 g ai/ha, postemergence, 0 is no effect, 100 is complete control, read-out: Plant response rating (0 to 100), Morningglory
  pest or weed control at 16 g/ha: 5%
morningglory; Ipomoea, post-emergence, 125 g ai/ha, postemergence, visual rating, scale 0 to 100 (0 no effect, 100 complete control), read-out: Plant response rating, Morningglory
  pest or weed control at 125 g/ha: 65%
morningglory; Ipomoea, post-emergence, Postemergence, 62 g ai/ha, scale 0 to 100 (0 no effect, 100 complete control), read-out: Plant response rating, Morningglory
  pest or weed control at 62 g/ha: 75%
Heteranthera limosa; Heteranthera limosa, read-out: Plant response rating, Ducksalad
  pest or weed control at 250 g/ha: 80%
pigweed; [10]
  Pigweed plant response rating: 75
pigweed; Amaranthus retroflexus, post-emergence, 16 g ai/ha, postemergence, 0 is no effect, 100 is complete control, read-out: Plant response rating (0 to 100), Pigweed
  pest or weed control at 16 g/ha: 80%
pigweed; Amaranthus retroflexus, post-emergence, 125 g ai/ha, postemergence, visual rating, scale 0 to 100 (0 no effect, 100 complete control), read-out: Plant response rating, Pigweed
  pest or weed control at 125 g/ha: 85%
pigweed; Amaranthus retroflexus, post-emergence, Postemergence, 62 g ai/ha, scale 0 to 100 (0 no effect, 100 complete control), read-out: Plant response rating, Pigweed
  pest or weed control at 62 g/ha: 75%
Corn [1]; Zea mays, post-emergence, 16 g ai/ha, postemergence, 0 is no effect, 100 is complete control, read-out: Plant response rating (0 to 100), Corn
  plant injury at 16 g/ha: 0%
Corn [1]; Zea mays, post-emergence, 31 g ai/ha, postemergence, visual rating, scale 0 to 100 (0 no effect, 100 complete control), 13 to 15 days, read-out: Corn plant response rating
  plant injury at 31 g/ha: 5%
Corn [1]; Zea mays, post-emergence, 125 g ai/ha, postemergence, visual rating, scale 0 to 100 (0 no effect, 100 complete control)
  Corn plant response rating (crop injury, 0 = no effect, 100 = complete kill) at 125 g/ha: 5%
Corn [1]; Zea mays, post-emergence, Postemergence, 62 g ai/ha, scale 0 to 100 (0 no effect, 100 complete control)
  Corn plant response rating (crop injury, 0 = no effect, 100 = complete kill) at 62 g/ha: 5%
Corn [2]; Zea mays, post-emergence, 240 h, 1000 g ai/ha, 0 to 100 scale, 0 no effect, 100 complete control, read-out: Plant response rating Corn
  plant injury at 1000 g/ha: 100%
barnyardgrass; Echinochloa crus-galli, post-emergence, 240 h, 1000 g ai/ha, 0 to 100 scale, 0 no effect, 100 complete control, read-out: Plant response rating Barnyardgrass
  pest or weed control at 1000 g/ha: 100%
Oilseed rape; [10]
  Oilseed Rape plant response rating: 55
Oilseed rape; Brassica napus, post-emergence, 16 g ai/ha, postemergence, 0 is no effect, 100 is complete control, read-out: Plant response rating (0 to 100), Oilseed Rape
  plant injury at 16 g/ha: 10%
Oilseed rape; Brassica napus, post-emergence, 125 g ai/ha, postemergence, visual rating, scale 0 to 100 (0 no effect, 100 complete control), read-out: Plant response rating, Oilseed Rape
  plant injury at 125 g/ha: 60%
Oilseed rape; Brassica napus, post-emergence, Postemergence, 62 g ai/ha, scale 0 to 100 (0 no effect, 100 complete control), read-out: Plant response rating, Oilseed Rape
  plant injury at 62 g/ha: 60%
velvetleaf; [10]
  Velvetleaf plant response rating: 65
velvetleaf; Abutilon theophrasti, post-emergence, 16 g ai/ha, postemergence, 0 is no effect, 100 is complete control, read-out: Plant response rating (0 to 100), Velvetleaf
  pest or weed control at 16 g/ha: 45%
velvetleaf; Abutilon theophrasti, post-emergence, 125 g ai/ha, postemergence, visual rating, scale 0 to 100 (0 no effect, 100 complete control), read-out: Plant response rating, Velvetleaf
  pest or weed control at 125 g/ha: 90%
velvetleaf; Abutilon theophrasti, post-emergence, Postemergence, 62 g ai/ha, scale 0 to 100 (0 no effect, 100 complete control), read-out: Plant response rating, Velvetleaf
  pest or weed control at 62 g/ha: 80%
waterhemp; [10]
  Waterhemp plant response rating: 35
waterhemp; Amaranthus tuberculatus, post-emergence, 16 g ai/ha, postemergence, 0 is no effect, 100 is complete control, read-out: Plant response rating (0 to 100), Waterhemp
  pest or weed control at 16 g/ha: 70%
waterhemp; Amaranthus tuberculatus, post-emergence, 125 g ai/ha, postemergence, visual rating, scale 0 to 100 (0 no effect, 100 complete control), read-out: Plant response rating, Waterhemp
  pest or weed control at 125 g/ha: 85%
waterhemp; Amaranthus tuberculatus, post-emergence, Postemergence, 62 g ai/ha, scale 0 to 100 (0 no effect, 100 complete control), read-out: Plant response rating, Waterhemp
  pest or weed control at 62 g/ha: 70%
Giant foxtail [3]; Setaria faberi, post-emergence, 240 h, 1000 g ai/ha, 0 to 100 scale, 0 no effect, 100 complete control, read-out: Plant response rating Foxtail, Giant
  pest or weed control at 1000 g/ha: 100%
Giant foxtail [4]; Setaria faberi, post-emergence, 16 g ai/ha, postemergence, 0 is no effect, 100 is complete control, read-out: Plant response rating (0 to 100), Foxtail, Giant
  pest or weed control at 16 g/ha: 0%
Giant foxtail [4]; Setaria faberi, post-emergence, 31 g ai/ha, postemergence, visual rating, scale 0 to 100 (0 no effect, 100 complete control), 13 to 15 days, read-out: Foxtail, Giant plant response rating
  pest or weed control at 31 g/ha: 5%
Giant foxtail [4]; Setaria faberi, post-emergence, 125 g ai/ha, postemergence, visual rating, scale 0 to 100 (0 no effect, 100 complete control), read-out: Plant response rating, Foxtail, Giant
  pest or weed control at 125 g/ha: 10%
Giant foxtail [4]; Setaria faberi, post-emergence, Postemergence, 62 g ai/ha, scale 0 to 100 (0 no effect, 100 complete control), read-out: Plant response rating, Foxtail, Giant
  pest or weed control at 62 g/ha: 5%
johnsongrass; [10]
  Johnsongrass plant response rating: 0
johnsongrass; Sorghum halepense, post-emergence, 16 g ai/ha, postemergence, 0 is no effect, 100 is complete control, read-out: Plant response rating (0 to 100), Johnsongrass
  pest or weed control at 16 g/ha: 0%
johnsongrass; Sorghum halepense, post-emergence, 125 g ai/ha, postemergence, visual rating, scale 0 to 100 (0 no effect, 100 complete control), read-out: Plant response rating, Johnsongrass
  pest or weed control at 125 g/ha: 5%
johnsongrass; Sorghum halepense, post-emergence, Postemergence, 62 g ai/ha, scale 0 to 100 (0 no effect, 100 complete control), read-out: Plant response rating, Johnsongrass
  pest or weed control at 62 g/ha: 0%
